According to publication PMC2680961, “Homologous desensitization of signalling by the alpha (α) isoform of the human thromboxane A2 receptor: A specific role for nitric oxide signalling” (Biochimica et Biophysica Acta, 2007):
Numbering of substitutions follows the chain as printed.

Tests used:
[1] = target: T1, TPα^S331,T337,S340A (Homo sapiens, UniProt P21731, S331A/S340A/T337A); experiment: [3H]SQ29,548 radioligand binding, Scatchard analysis, HEK.TPα^S331,T337,S340A
T1 construct: expressed in transfected cells
T1 sequence (P21731 1-343 S331A/T337A/S340A): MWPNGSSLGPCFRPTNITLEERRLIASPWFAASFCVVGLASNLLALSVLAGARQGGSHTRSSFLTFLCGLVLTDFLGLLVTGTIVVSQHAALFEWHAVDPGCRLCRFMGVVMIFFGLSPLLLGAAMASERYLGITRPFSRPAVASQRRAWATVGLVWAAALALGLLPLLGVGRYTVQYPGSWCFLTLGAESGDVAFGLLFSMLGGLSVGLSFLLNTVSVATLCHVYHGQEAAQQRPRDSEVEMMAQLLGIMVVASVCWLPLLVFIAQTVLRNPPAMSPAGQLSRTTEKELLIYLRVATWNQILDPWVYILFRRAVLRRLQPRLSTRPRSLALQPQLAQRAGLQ
Method: Cells were harvested by centrifugation at 500×g at 4 °C for 5 min and washed three times with ice-cold Ca^2+/Mg^2+-free phosphate-buffered saline (PBS). TP radioligand binding assays were carried out at 30 °C for 30 min in 100 μl reactions in the presence of 0–40 nM [^3H] […] Protein determinations were carried out using the Bradford assay.
Radioligand binding and Scatchard analysis data were analysed using GraphPad Prisim V4.0 programme (GraphPad Software Inc., San Diego CA, USA). Statistical analyses were carried out using the unpaired Student's t test using the Statworks Analysis Package. p-values ≤ 0.01 indicated statistically significant differences.

[2] = target: T2, TPα^S331,T337A (Homo sapiens, UniProt P21731, S331A/T337A); experiment: Agonist-mediated TP phosphorylation in whole cells, HEK.TPα^S331,T337A; type: cell-based; details: 1 μM U46619 10 min
T2 construct: expressed in transfected cells
T2 sequence (P21731 1-343 S331A/T337A): T1 sequence (P21731 1-343 S331A/T337A/S340A) with A340S
Method: Agonist-mediated TP phosphorylation in whole cells (1.8–2 × 10^6 cells/10 cm dish) was performed essentially as previously described. Briefly, cells were transiently co-transfected with pADVA (10 μg), pCMV:Gαq (25 μg) plus pcDNA:βArrestin2 (25 μg) approximately 48 h prior to labelling. Thereafter, cells were washed once in phosphate-free DMEM, 10% dialysed FBS and were metabolically labelled for 60 min in the same medium (2 ml/10 cm dish) containing 100 μCi/ml [^32P] orthophosphate (8000–9000 Ci/mmol) at 37 °C, 5% CO2. Where appropriate, the PKG kinase inhibitor KT 5823 (50 nM) or its vehicle was added during the labelling period. Thereafter, U46619 (1 μM) or an equivalent volume of vehicle (0.01% ethanol in HBS; 20 μl) were added and cells were incubated for 10 min at 37 °C, 5% CO2. Reactions were terminated by transferring the dishes to ice and aspirating the labelled medium and HA-epitope tagged TP receptors were processed and immunoprecipitated using the anti-HA 101R antibody as previously described. Electroblots were then exposed to Xomat XAR (Kodak) film to detect ^32P-labelled proteins. Thereafter, blots were subject to phosphorimage analysis, and the intensities of agonist-induced phosphorylation were expressed in arbitrary units relative to basal (vehicle-stimulated) levels. […]

Bmax (pmol/mg protein ± S.E.M.) [1] | SMILES | U46619-induced phosphorylation of TPα^S331,T337A [2]
4.01 ± 0.05 pmol/mg protein | O=C(O)CCC/C=C\C[C@@H]1[C@H](CNNC(=O)Nc2ccccc2)[C@H]2CC[C@@H]1O2 [SQ29,548] | 
 | CCCCC[C@H](O)/C=C/[C@@H]1[C@@H](C/C=C\CCCC(=O)O)[C@H]2CO[C@@H]1C2 [U46619] | failed to undergo significant U46619-induced phosphorylation above basal levels
